Paper PMC11173485, “Connecting GSK-3β Inhibitory Activity with IKK-β or ROCK-1 Inhibition to Target Tau Aggregation and Neuroinflammation in Alzheimer’s Disease—Discovery, In Vitro and In Cellulo Activity of Thiazole-Based Inhibitors” (Molecules, 2024)
Like-named read-outs stand apart in the source and are kept apart here.

Columns and labels:
[1] = biological target: T1, IKK-β (Homo sapiens, UniProt O14920); assay: ADP-Glo kinase assay, IKK-β inhibition; type: biochemical; settings: for inhibition at 10 µM: mean ± SD, read-out: % inh. at 10 µM IKK-β; for IC50: mean ± SEM, ATP 25 µM
T1 construct: purchased Promega
T1 sequence (O14920 1-756): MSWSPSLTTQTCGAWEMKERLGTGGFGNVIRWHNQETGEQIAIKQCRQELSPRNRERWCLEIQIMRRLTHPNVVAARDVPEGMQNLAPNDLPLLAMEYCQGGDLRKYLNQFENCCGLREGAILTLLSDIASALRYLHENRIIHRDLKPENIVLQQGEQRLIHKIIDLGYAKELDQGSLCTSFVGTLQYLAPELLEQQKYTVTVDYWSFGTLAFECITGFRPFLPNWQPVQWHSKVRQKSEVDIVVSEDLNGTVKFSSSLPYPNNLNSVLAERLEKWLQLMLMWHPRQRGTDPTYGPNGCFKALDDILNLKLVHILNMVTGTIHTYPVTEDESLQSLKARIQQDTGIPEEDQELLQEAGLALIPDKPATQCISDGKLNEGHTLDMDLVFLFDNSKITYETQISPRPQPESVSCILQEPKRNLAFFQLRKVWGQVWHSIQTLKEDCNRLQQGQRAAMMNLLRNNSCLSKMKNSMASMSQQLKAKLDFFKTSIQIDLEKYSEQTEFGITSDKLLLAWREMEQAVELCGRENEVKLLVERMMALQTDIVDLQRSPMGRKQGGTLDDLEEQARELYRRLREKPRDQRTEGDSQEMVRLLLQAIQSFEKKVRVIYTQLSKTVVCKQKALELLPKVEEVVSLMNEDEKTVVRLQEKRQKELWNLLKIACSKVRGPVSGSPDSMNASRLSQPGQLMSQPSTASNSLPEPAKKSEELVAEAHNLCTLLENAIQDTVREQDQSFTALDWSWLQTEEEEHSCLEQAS
Text: (§1) We evaluated the inhibitory activity of the final compounds against GSK-3β, IKK-β, and ROCK-1 kinases using the commercially available ADP-Glo™ kinase assay. The method was based on the measurement of luminescence that correlates with kinase activity. […] The latter are inhibitors of the kinases of interest and were integral to the design of our studies.
Promega’s Kinase Enzyme Systems (Promega; Madison, WI, USA) were used to determine the activities of the tested compounds against the human recombinant kinases GSK-3β, IKK- β, and ROCK-1. The assays were performed according to the provided manufacturer’s instruction, based on the optimized conditions of the enzymatic reactions, using the low-volume, white polystyrene, 384-well plates. The ADP-Glo™ Assay (Promega; Madison, WI, USA) was used for bioluminescent detection of the kinase activity. Stock solutions of the tested compounds in DMSO (1mM) were diluted with the Kinase Assay Buffer before use (40 mM Tris, pH 7.5, enriched with 50 µM dithiothreitol; DTT), giving the final desired concentrations. The kinase enzymes, substrates, and ATP solutions were also diluted with the assay buffer prior to use. The GSK-3β, IKK-β, and ROCK-1 substrates were derived from human muscle glycogen synthase 1, human IkBA, and human 40S ribosomal protein S6, respectively. The assay procedure was as follows: At first, the appropriate kinase enzyme (GSK-3β: 10 ng per well; IKK-β: 45 ng per well; ROCK-1: 24 ng per well) was incubated with the tested sample (10 µM in well) for 5 min. The DMSO solution (1% in well) was used in the blank samples instead of the tested inhibitors. After the incubation period, ATP (25 µM per well in the case of GSK-3β and IKK-β kinases; 5 µM per well in the case of ROCK-1 kinase) and an appropriate enzyme substrate (0.2 µg/µL in well) were added to start the enzymatic reaction. The reaction mixture was kept at room temperature for 1 h; then, the ADP-Glo™ reagent was added, to terminate the kinase reaction and deplete any remaining ATP. After 40 min, a second reagent (Kinase Detection Reagent) was applied to convert the obtained ADP to ATP and to generate light from the newly synthesized ATP using a luciferase/luciferin reaction. The mixture was incubated for another 30 min at room temperature before the luminescence was measured. The calculations of the percent of kinases’ inhibition by tested compounds were based on the equation 100 − (S/B) × 100; S and B are the enzyme activities with and without the tested sample, respectively. […] Each compound was evaluated in two independent experiments, with every data point collected in duplicate.

[2] = biological target: T2, ROCK-1 (Homo sapiens, UniProt Q13464); assay: ADP-Glo kinase assay, ROCK-1 inhibition; type: biochemical; settings: for inhibition at 10 µM: read-out: % inh. at 10 µM ROCK-1
T2 construct: purchased Promega
Text: as §1
Promega’s Kinase Enzyme Systems (Promega; Madison, WI, USA) were used to determine the activities of the tested compounds against the human recombinant kinases GSK-3β, IKK- β, and ROCK-1. The assays were performed according to the provided manufacturer’s instruction, based on the optimized conditions of the enzymatic reactions, using the low-volume, white polystyrene, 384-well plates. The ADP-Glo™ Assay (Promega; Madison, WI, USA) was used for bioluminescent detection of the kinase activity. Stock solutions of the tested compounds in DMSO (1mM) were diluted with the Kinase Assay Buffer before use (40 mM Tris, pH 7.5, enriched with 50 µM dithiothreitol; DTT), giving the final desired concentrations. The kinase enzymes, substrates, and ATP solutions were also diluted with the assay buffer prior to use. The GSK-3β, IKK-β, and ROCK-1 substrates were derived from human muscle glycogen synthase 1, human IkBA, and human 40S ribosomal protein S6, respectively. […] The DMSO solution (1% in well) was used in the blank samples instead of the tested inhibitors. After the incubation period, ATP (25 µM per well in the case of GSK-3β and IKK-β kinases; 5 µM per well in the case of ROCK-1 kinase) and an appropriate enzyme substrate (0.2 µg/µL in well) were added to start the enzymatic reaction. The reaction mixture was kept at room temperature for 1 h; then, the ADP-Glo™ reagent was added, to terminate the kinase reaction and deplete any remaining ATP. After 40 min, a second reagent (Kinase Detection Reagent) was applied to convert the obtained ADP to ATP and to generate light from the newly synthesized ATP using a luciferase/luciferin reaction. The mixture was incubated for another 30 min at room temperature before the luminescence was measured. The calculations of the percent of kinases’ inhibition by tested compounds were based on the equation 100 − (S/B) × 100; S and B are the enzyme activities with and without the tested sample, respectively. […]. IC50 results were obtained using nonlinear regression (GraphPad Prism 9; GraphPad Software, San Diego, CA, USA) by plotting the residual enzyme activities against the applied inhibitor concentration. Each compound was evaluated in two independent experiments, with every data point collected in duplicate.

T2 sequence (Q13464 whole entry): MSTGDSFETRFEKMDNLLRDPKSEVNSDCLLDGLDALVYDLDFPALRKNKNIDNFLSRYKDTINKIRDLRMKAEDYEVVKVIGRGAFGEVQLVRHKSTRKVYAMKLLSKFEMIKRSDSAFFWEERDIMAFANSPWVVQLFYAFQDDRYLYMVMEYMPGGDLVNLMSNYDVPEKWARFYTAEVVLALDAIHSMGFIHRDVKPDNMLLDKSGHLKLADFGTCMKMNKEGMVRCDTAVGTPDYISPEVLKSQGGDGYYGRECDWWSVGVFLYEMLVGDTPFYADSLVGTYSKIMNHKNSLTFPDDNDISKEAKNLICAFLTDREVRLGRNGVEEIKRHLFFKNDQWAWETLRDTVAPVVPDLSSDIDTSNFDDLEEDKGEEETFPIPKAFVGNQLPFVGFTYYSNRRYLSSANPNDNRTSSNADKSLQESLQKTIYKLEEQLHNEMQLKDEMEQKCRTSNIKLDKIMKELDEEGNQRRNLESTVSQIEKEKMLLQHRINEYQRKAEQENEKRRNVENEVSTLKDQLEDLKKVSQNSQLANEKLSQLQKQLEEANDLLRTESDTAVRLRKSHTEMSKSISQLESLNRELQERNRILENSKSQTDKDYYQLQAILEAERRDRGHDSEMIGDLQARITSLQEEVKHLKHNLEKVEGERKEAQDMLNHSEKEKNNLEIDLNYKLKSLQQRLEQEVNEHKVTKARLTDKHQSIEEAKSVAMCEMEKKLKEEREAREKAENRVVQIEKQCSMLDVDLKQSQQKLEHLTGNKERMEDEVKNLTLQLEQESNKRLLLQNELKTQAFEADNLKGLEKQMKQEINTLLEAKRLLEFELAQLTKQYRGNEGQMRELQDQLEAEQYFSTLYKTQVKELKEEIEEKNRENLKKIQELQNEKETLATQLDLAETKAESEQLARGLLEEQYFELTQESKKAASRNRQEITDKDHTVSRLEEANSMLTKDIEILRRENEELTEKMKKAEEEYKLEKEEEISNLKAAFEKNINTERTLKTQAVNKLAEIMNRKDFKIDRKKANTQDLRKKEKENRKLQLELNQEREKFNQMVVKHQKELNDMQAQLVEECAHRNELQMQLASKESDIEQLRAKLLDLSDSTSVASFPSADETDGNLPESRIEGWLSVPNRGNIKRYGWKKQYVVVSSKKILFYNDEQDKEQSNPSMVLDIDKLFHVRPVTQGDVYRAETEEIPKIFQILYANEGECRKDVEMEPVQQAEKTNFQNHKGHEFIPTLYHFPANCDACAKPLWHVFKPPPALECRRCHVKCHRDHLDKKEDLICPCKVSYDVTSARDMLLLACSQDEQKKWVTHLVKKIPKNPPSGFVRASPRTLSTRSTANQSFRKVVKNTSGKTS

SMILES	inhibition at 10 µM [1] [%]	inhibition at 10 µM ([2]; mean ± SD) [%]	IC50 [1] [nM]	IC50 ([2]; mean ± SEM, ATP 5 µM) [nM]	also measured
CC(C)C(=O)Nc1cc(-c2cc3c(s2)C(=O)NC(C)(C)N3)ccn1 [Compound 39, N-(4-(2,2-Dimethyl-4-oxo-1,2,3,4-tetrahydrothieno [3,2-d]pyrimidin-6-yl)pyridin-2-yl)isobutyramide]	33	32			
NC(=O)Nc1cc(-c2ccnc(NC(=O)C3CC3)c2)sc1C(N)=O [Compound 49, 5-(2-(Cyclopropanecarboxamido)pyridin-4-yl)-3-ureidothiophene-2-carboxamide]	16				
NC(=O)Nc1cc(-c2ccnc(NC(=O)C3CCC3)c2)sc1C(N)=O [Compound 50, 5-(2-(Cyclobutanecarboxamido)pyridin-4-yl)-3-ureidothiophene-2-carboxamide]	< 10				inhibition at 1 µM ([2]; 1 μM (footnote), mean ± SD, read-out: % inh. ROCK-1, tested at inhibitor screening concentration of 1 μM): < 10%
NC(=O)Nc1cc(-c2cccc(NC(=O)C3CC3)c2)sc1C(N)=O [Compound 58, 5-(3-(Cyclopropanecarboxamido)phenyl)-3-ureidothiophene-2-carboxamide]			422 ± 12		
O=C1NC2(CCOC2)Nc2cc(-c3ccnc(NC(=O)C4CC4)c3)sc21 (stereo not drawn) [Compound 62, N-(4-(4′-Oxo-3′,4,4′,5-tetrahydro-1′H,2H-spiro[furan-3,2′-thieno [3,2-d]pyrimidin]-6′-yl)pyridin-2-yl)cyclopropanecarboxamide]	39			2310 ± 131	IC50 [2]: 2300 nM

The next lines start with results.

inhibition at 10 µM [1] [%]	inhibition at 10 µM ([2]; mean ± SD) [%]	IC50 [1] [nM]	IC50 ([2]; mean ± SEM, ATP 5 µM) [nM]	SMILES	also measured
		4380 ± 544	1760 ± 109	CC1(C)NC(=O)c2sc(-c3ccnc(NC(=O)C4CC4)c3)cc2N1 [Compound 40, N-(4-(2,2-Dimethyl-4-oxo-1,2,3,4-tetrahydrothieno [3,2-d]pyrimidin-6-yl)pyridin-2-yl)-cyclopropanecarboxamide]	
32	48			CC1(C)NC(=O)c2sc(-c3ccnc(NC(=O)C4CCC4)c3)cc2N1 [Compound 41, N-(4-(2,2-Dimethyl-4-oxo-1,2,3,4-tetrahydrothieno [3,2-d]pyrimidin-6-yl)pyridin-2-yl)-cyclobutanecarboxamide]	
< 10	< 10			CC(C)C(=O)Nc1cc(-c2cc(NC(N)=O)c(C(N)=O)s2)ccn1 [Compound 48, 5-(2-Isobutyramidopyridin-4-yl)-3-ureidothiophene-2-carboxamide]	
		7350	1360 ± 79	O=C1NC2(CCCC2)Nc2cc(-c3ccnc(NC(=O)C4CC4)c3)sc21 [Compound 60, N-(4-(4’-Oxo-3’,4’-dihydro-1’H-spiro[cyclopentane-1,2’-thieno [3,2-d]pyrimidin]-6’-yl)pyridin-2-yl)cyclopropanecarboxamide]	
22				COc1nc(-c2ccnc(NC(=O)C3CC3)c2)sc1C(N)=O [II, reference compound]	
